Experimental data taken from the NIST ThermoML archive (doi:10.1016/j.jct.2012.05.030).

Legend:
[1] = refractive index (other wavelength) (dimensionless); conditions: 100 kPa, Liquid, Wavelength=632.8 nm, Standard Abbe refractometry
[2] = refractive index (other wavelength) (dimensionless); xn = mol fraction of the nth substance listed; conditions: 100 kPa, Liquid, Wavelength=632.8 nm, Standard Abbe refractometry, x1 = 1

N#Cc1ccccc1 [benzonitrile]
[1]
Conditions | refractive index
293.37 K | 1.5252
293.99 K | 1.5249
294.53 K | 1.5247
295.09 K | 1.5243
295.66 K | 1.5241
296.11 K | 1.5238
296.8 K | 1.5236
297.16 K | 1.5233
297.91 K | 1.523
298.2 K | 1.5228
298.8 K | 1.5225
298.83 K | 1.5226
299.26 K | 1.5223
300.06 K | 1.5219
300.12 K | 1.5219
300.31 K | 1.5218
301.13 K | 1.5214
301.23 K | 1.5214
301.35 K | 1.5213
302.26 K | 1.5209
302.31 K | 1.5209
302.42 K | 1.5208
302.65 K | 1.5207
303.41 K | 1.5203
304.49 K | 1.5198
305.64 K | 1.5192
306.89 K | 1.5186
307.55 K | 1.5183
307.88 K | 1.5181

N#Cc1ccccc1 [benzonitrile] + CCCCCCCCCCCCCCC
[2]
Conditions | refractive index
293.37 K | 1.5252
293.99 K | 1.5249
294.53 K | 1.5247
295.09 K | 1.5243
295.66 K | 1.5241
296.11 K | 1.5238
296.8 K | 1.5236
297.16 K | 1.5233
297.91 K | 1.523
298.2 K | 1.5228
298.8 K | 1.5225
298.83 K | 1.5226
299.26 K | 1.5223
300.06 K | 1.5219
300.12 K | 1.5219
300.31 K | 1.5218
301.13 K | 1.5214
301.23 K | 1.5214
301.35 K | 1.5213
302.26 K | 1.5209
302.31 K | 1.5209
302.42 K | 1.5208
302.65 K | 1.5207
303.41 K | 1.5203
304.49 K | 1.5198
305.64 K | 1.5192
306.89 K | 1.5186
307.88 K | 1.5181

N#Cc1ccccc1 [benzonitrile] + CCCCCCCCCCCCCCCCC
[2]
Conditions | refractive index
293.37 K | 1.5252
293.99 K | 1.5249
294.53 K | 1.5247
295.09 K | 1.5243
295.66 K | 1.5241
296.11 K | 1.5238
296.8 K | 1.5236
297.16 K | 1.5233
297.91 K | 1.523
298.2 K | 1.5228
298.8 K | 1.5225
298.83 K | 1.5226
299.26 K | 1.5223
300.06 K | 1.5219
300.12 K | 1.5219
300.31 K | 1.5218
301.13 K | 1.5214
301.23 K | 1.5214
301.35 K | 1.5213
302.26 K | 1.5209
302.31 K | 1.5209
302.42 K | 1.5208
303.41 K | 1.5203
304.49 K | 1.5198
305.64 K | 1.5192
306.89 K | 1.5186
307.55 K | 1.5183
307.88 K | 1.5181
